Columns and labels:
[1] = tested on: DR4; assay: Association of exogenous MADD with DR4 in HEK293 cells (immunoprecipitation); type: cell-based
Protocol: (A) Phosphorylation status of MADD could influence its binding to DR4. HEK293 cells were transfected with wtMADD or MADD mutants. 36 h after transfection, the cells were harvested for immunoprecipitation using an anti-DR4 antibody followed by immunoblotting using an anti-YFP antibody to detect exogenous MADD. The membrane was reprobed with an anti-DR4 antibody to show the protein loading. (B) PI3K can influence the association of exogenous MADD with DR4. HEK293 cells were transfected with wtMADD. Twenty four hours after transfection, the cells were serum starved for 20 h. Further, they were treated with LY (10 μM) for 1 h, IGF-1 (150 ng/ml) for 20 minutes. Immunoprecipitation using an anti-DR4 antibody was followed by immunoblotting using anti-YFP or anti-DR4 antibody. (C) Akt can influence exogenous MADD association with DR4. HEK293 cells were co-transfected with wtMADD along with DN-Akt or the empty vector pcDNA3.1 (pcDNA). Thirty six hours after transfection, the cells were harvested for immunoprecipitation using anti-DR4 antibody followed by immunoblotting with an anti-YFP or an anti-DR4 antibody. (D) PI3K can influence the association of endogenous MADD with DR4. HeLa cells were serum starved for 20 h, then treated with LY (10 μM) for 1 h, IGF-1 (150 ng/ml) for 20 minutes. Immunoprecipitation using an anti-DR4 antibody was followed by immunoblotting with an anti-MADD or an anti-DR4 antibody. (E) Akt can influence the association of endogenous MADD with DR4. HeLa cells were transfected with DN-Akt or pcDNA. Thirty six hours after transfection, the cells were collected for immunoprecipitation using an anti-DR4 antibody followed by immunoblotting with an anti-MADD antibody.
MADD can bind to DR4 and thereby block the activation of the extrinsic apoptotic pathway. […] Stimulation of PI3K by IGF-1 increased, while inhibition by LY reduced, the association between wtMADD and DR4 (FIG. 15B). […] This interaction was reduced in the presence of LY (FIG. 15D) or DN-Akt (FIG. 15E).
Immunoprecipitation. Immunoprecipitations were performed using standard procedures. The samples were precleared with 10% (vol/vol) Protein-A agarose (Roche) for 1 h on a rocking platform. Specific antibodies were added and rocked for 1 h. Immunoprecipitates were captured by incubating with 10% (vol/vol) Protein-A agarose for an hour. The agarose beads were spun down and washed three times with NET/NP40 buffer (150 mM NaCl, 2 mM EDTA, 50 mM Tris-HCl pH 7.5, 0.1% NP-40). The antigens were released and denatured by adding SDS sample buffer. Immunoblots were prepared and analysed as described above.

[2] = tested on: HEK293 cells; assay: Cell death of HEK293 cells transfected with MADD constructs, Trypan Blue exclusion; type: cell-based; details: HEK293, 48 h after transfection
Protocol: (A) HEK293 cells were transfected with various MADD constructs. Cell death was determined 48 h after transfection by Trypan Blue exclusion. *p<0.05 vs control. (B) Apoptosis analyzed by Cell Death Detection ELISA. *p<0.05 vs control. (C) Phosphorylatable but not the nonphosphorylatable MADD could rescue cell death upon endogenous MADD knockdown. HeLa cells were infected with the lentivirus harboring MADD shRNAi (RNAi) or its scrambled form (Scrambled RNAi). 24 h after infection, cells were transfected with the constructs of wtMADD-R or MADD3A-R. 48 h after transfection, cell death was determined by Trypan Blue exclusion. *p<0.05 vs RNAi alone. (D) Inhibition of Akt or PI3K could abolish the ability of wtMADD-R to rescue cell death upon endogenous MADD knockdown. HeLa cells were infected with the lentivirus harboring MADD shRNA (RNAi). 24 h after infection, cells were infected with the adenovirus harboring DN-Akt, and transfected with wtMADD-R. LY (10 μM) was added 6 h after transfection. 48 h after transfection, cell death was determined by Trypan Blue exclusion. Data are expressed as the mean±SEM of three independent experiments.
To see whether phosphorylation is required for the prosurvival function of MADD, WT and mutant MADD were tested. […] Since knockdown of endogenous MADD can cause cell death, it was tested whether the wtMADD or MADD3A could rescue this cell death. Only the shRNA resistant wtMADD (wtMADD-R) and not the MADD3A-R could rescue cell death upon endogenous MADD knockdown (FIG. 14C), which was abrogated in the presence either LY or DN-Akt (FIG. 14D). Taken together, the prosurvival function of MADD is dependent upon its phosphorylation by Akt.
Cell culture and viability assay. HEK293, HeLa and PA-1 cells were cultured. Cell death was determined by Trypan Blue exclusion and the numbers of Trypan Blue-positive and -negative cells were counted using a haemocytometer.

[3] = target: Akt (Homo sapiens, UniProt P31749); assay: Phosphorylation of MADD in vitro by Akt (kinase assay); type: biochemical; details: GST-tagged recombinant MADD, rAkt, 1 h at 30° C.
Protocol: (A) In vitro phosphorylation of rMADD by Akt. GST-wtMADD or -MADD mutants were expressed in bacteria, purified, and then incubated with rAkt and γ[^32P] ATP. After 1 h incubation at 30° C., the products were resolved on SDS-PAGE and ^32P-labeled proteins were visualized by autoradiography. (B) MADD is labeled by [^32P]orthophosphate in vivo. HEK293 cells were transfected with wtMADD or MADD mutant constructs. Twenty-four hours after transfection cells were incubated with 0.3 mCi/ml [32P]orthophosphate for 6 h. MADD was immunoprecipitated with an anti-YFP antibody. The precipitated MADD was separated by SDS-PAGE, transferred to a nitrocellulose membrane, and subjected to autoradiography. Loaded MADD was visualized by staining the same membrane with an anti-YFP antibody. (C) HEK293 cells were transfected with cDNAs for wtMADD or MADD mutants and. 36 h later the cells were harvested for immunoblotting using the anti-phospho-S-70, -T-173 or -T-1041 antibodies. An anti-YFP antibody was used to detect exogenous MADD. (D) HEK293 cells were transfected with wtMADD and 24 hours later cells were serum starved for 20 h. Subsequently, they were treated with LY (10 μM) for 1 h and/or IGF-1 (150 ng/ml) for 20 minutes. The cell lysates were immunoblotted and probed with anti phospho-specific antibodies or an anti-YFP antibody. (E) HEK293 cells were co-transfected with wtMADD along with dominant negative Akt (DN-Akt) or the empty vector pcDNA3.1 (pcDNA). Immunoblots were probed with the anti phospho-specific antibodies or an anti-YFP antibody. (F) HeLa cells were serum starved for 20 h, treated with LY (10 μM) for 1 h, IGF-1 (150 ng/ml) for 20 minutes. Immunoblot was probed with the anti phospho-specific antibodies or an anti-MADD antibody.
To test whether MADD is a substrate of Akt, an in vitro assay was employed to test whether Akt could directly phosphorylate MADD. […] It was tested whether MADD could be phosphorylated in vivo. […] Second, three antibodies that specifically reacted with phosphorylated S70 (anti-phospho S70), T173 (anti-phospho T173) or T1041 (anti-phospho T1041) were raised, respectively. The phosphopeptides, CRQRRMpSLRDDTS (SEQ ID NO: 7) (S-70), GSRSRNSpTLTSL (SEQ ID NO: 8) (T-173), and KRKRSPpTESVNTP (SEQ ID NO: 9) (T-1041) were used to immunize the rabbits. Antisera were depleted of antibodies that recognize non-phosphorylated MADD by negatively selecting the antibodies using an identical non-phosphorylated peptide affinity column. Antibodies in the flow through were tested to ensure that they specifically bind only to the corresponding phosphorylated peptide and not the non-phosphorylated couterpart. […]

[4] = tested on: ERK1/2; assay: TNF-α induced ERK phosphorylation in HeLa cells (immunoblot); type: cell-based; details: TNF-α 50 ng/mL, untransduced
Protocol: (A) Time-kinetics of TNF-α induced ERK activation. HeLa cells (3×10^6 per 100 mm dish) were serum starved for 6 h and were either left untreated or treated with TNF-α (50 ng/mL) for different time periods as indicated. Cell lysates were analyzed for phosphorylated ERK or total ERK by immunoblot. (B) Down-modulation of endogenous IG20-SVs in HeLa cells. One microgram of total RNA obtained from HeLa cells 48 h post-transduction was used for reverse-transcription-polymerase chain reaction. The products were separated on a 2% agarose gel. Amplification of all four IG20-SVs was done using F2-B2 primers. […] HeLa cells (3×10^6 per 100 mm dish) were either untransduced or transduced with different lentiviruses expressing SCR, Mid and 13L ShRNA for different time periods as indicated. At the end of each time period, the cells were serum starved for 6 h and were either left untreated or treated with TNF-α (50 ng/mL) for 15 min. Cell lysates were analyzed for phosphorylated ERK or total ERK by immunoblot. The data shown is representative of at least 3 independent experiments.
(A) HeLa cells (3×10^6 per 100 mm dish) were transduced with different lentiviruses expressing SCR, Mid and 16E ShRNA for 48 h. The cells were then serum starved for 6 h and were either left untreated or treated with TNF-α (50 ng/mL) for 15 min. Cell lysates were analyzed for phosphorylated ERK or total ERK by immunoblot. (B) PA-1 cells (5×10^6 per 100 mm dish) were transduced with different lentiviruses expressing SCR, Mid and 13L ShRNA for 48 h. The cells were then serum starved for 6 h and were either left unstimulated or stimulated with TNF-α (50 ng/mL) for 15 min. Cell lysates were analyzed for phosphorylated ERK or total ERK by immunoblot. […] Cell lysates were analyzed for phosphorylated ERK or total ERK by immunoblot. […]
To gain insight into the time kinetics of TNF-α induced ERK phosphorylation, HeLa cells were treated with TNF-α (50 ng/mL) for different time periods. […] Down-modulation of IG20 transcripts upon treatment with different ShRNA expressing lentiviruses was monitored by RT-PCR. […]

Sequence of Akt (P31749 whole entry): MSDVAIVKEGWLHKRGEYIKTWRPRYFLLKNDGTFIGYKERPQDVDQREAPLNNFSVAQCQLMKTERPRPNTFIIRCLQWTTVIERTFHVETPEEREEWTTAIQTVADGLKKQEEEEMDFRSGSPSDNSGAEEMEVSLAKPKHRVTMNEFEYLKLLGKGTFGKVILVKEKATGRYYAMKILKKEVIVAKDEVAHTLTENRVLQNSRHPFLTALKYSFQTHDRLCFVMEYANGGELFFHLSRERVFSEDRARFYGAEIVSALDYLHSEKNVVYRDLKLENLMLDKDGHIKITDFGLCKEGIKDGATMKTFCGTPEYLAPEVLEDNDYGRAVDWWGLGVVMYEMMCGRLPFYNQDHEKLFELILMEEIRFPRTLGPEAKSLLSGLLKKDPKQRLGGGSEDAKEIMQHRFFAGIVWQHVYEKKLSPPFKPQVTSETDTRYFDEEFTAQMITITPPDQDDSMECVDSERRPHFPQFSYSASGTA

| Substance | In vitro phosphorylation by Akt [3] | Association of exogenous MADD with DR4 [1] | Cell death upon enforced expression [2] | Time of maximum ERK phosphorylation [4] |
| --- | --- | --- | --- | --- |
| MADD3A: MADD mutant, all three residues (S70, T173, T1041) converted to alanine |  | almost non-existant | significant cell death |  |
| MADD1041A: MADD mutant T1041A | reduced or absent |  | minimal effects on cell death |  |
| TNF-α [reference compound] |  |  |  | 15 min |

Continued, in another order:

| In vitro phosphorylation by Akt [3] | Substance | Association of exogenous MADD with DR4 [1] | Cell death upon enforced expression [2] | Time of maximum ERK phosphorylation [4] |
| --- | --- | --- | --- | --- |
| reduced or absent | MADD70A: MADD mutant S70A |  | minimal effects on cell death |  |
| reduced or absent | MADD173A: MADD mutant T173A |  | minimal effects on cell death |  |
| phosphorylated by Akt | wtMADD: recombinant wild-type MADD | can associate with DR4 | could not induce cell death |  |

Reference: patent publication US7910723B2, “IG20 splice variants therapeutics for cancer” (The Board of Trustees of the University of Illinois, priority 2006, dated 2011)
